Laboratory results taken from patent US20060281755A1, “SYNERGISTIC MODULATION OF FLT3 KINASE USING AMINOPYRIMIDINES KINASE MODULATORS” (priority 2005, published 2006).

Columns and labels:
MV4-11 cells = experiment: Inhibition of MV4-11 cell proliferation (CellTiterGlo); conditions: Homo sapiens, MV4-11, 72 h, read-out: MV4-11 (uM)
Protocol: To measure total cell growth an equal volume of CellTiterGlo reagent was added to each well, according to the manufacturer's instructions, and luminescence was quantified.
MV4-11 cells express the FLT3 internal tandem duplication mutation, and thus are entirely dependent upon FLT3 activity for growth. […] In contrast, the Baf3 cell proliferation is driven by the cytokine IL-3 and thus are used as a non-specific toxicity control for test compounds.

[1] = biological target: T1, isolated kinase domain of the human FLT3 receptor (a.a. 571-993) (Homo sapiens, UniProt P36888); experiment: FLT3 fluorescence polarization kinase assay; type: biochemical; conditions: uncertainty ±10%
T1 construct: human FLT3 receptor (a.a. 571-993)
T1 sequence (P36888 571-993): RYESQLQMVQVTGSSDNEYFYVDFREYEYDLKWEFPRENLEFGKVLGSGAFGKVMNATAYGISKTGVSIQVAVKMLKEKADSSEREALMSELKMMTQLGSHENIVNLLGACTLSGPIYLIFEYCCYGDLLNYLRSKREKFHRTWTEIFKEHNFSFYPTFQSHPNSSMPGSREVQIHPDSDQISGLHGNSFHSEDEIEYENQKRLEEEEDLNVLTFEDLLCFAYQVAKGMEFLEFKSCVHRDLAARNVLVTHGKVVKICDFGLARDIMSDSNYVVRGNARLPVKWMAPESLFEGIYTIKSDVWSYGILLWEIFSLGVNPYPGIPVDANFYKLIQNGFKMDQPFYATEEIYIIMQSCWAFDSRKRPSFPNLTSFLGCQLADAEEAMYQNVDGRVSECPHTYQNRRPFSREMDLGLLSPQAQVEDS
Text: The FLT3 FP assay utilizes the fluorescein-labeled phosphopeptide and the anti-phosphotyrosine antibody included in the Panvera Phospho-Tyrosine Kinase Kit (Green) supplied by Invitrogen. When FLT3 phosphorylates polyGlu4Tyr, the fluorescein-labeled phosphopeptide is displaced from the anti-phosphotyrosine antibody by the phosphorylated poly Glu4Tyr, thus decreasing the FP value. […] The kinase reaction is stopped with the addition of EDTA. The fluorescein-labeled phosphopeptide and the anti-phosphotyrosine antibody are added and incubated for 30 minutes at room temperature.

[2] = biological target: T2, FLT ligand-induced wild-type FLT3 phosphorylation in Baf3 FLT3 cells (Homo sapiens, UniProt P36888); experiment: Cell-based FLT3 receptor ELISA
T2 sequence (P36888 27-993): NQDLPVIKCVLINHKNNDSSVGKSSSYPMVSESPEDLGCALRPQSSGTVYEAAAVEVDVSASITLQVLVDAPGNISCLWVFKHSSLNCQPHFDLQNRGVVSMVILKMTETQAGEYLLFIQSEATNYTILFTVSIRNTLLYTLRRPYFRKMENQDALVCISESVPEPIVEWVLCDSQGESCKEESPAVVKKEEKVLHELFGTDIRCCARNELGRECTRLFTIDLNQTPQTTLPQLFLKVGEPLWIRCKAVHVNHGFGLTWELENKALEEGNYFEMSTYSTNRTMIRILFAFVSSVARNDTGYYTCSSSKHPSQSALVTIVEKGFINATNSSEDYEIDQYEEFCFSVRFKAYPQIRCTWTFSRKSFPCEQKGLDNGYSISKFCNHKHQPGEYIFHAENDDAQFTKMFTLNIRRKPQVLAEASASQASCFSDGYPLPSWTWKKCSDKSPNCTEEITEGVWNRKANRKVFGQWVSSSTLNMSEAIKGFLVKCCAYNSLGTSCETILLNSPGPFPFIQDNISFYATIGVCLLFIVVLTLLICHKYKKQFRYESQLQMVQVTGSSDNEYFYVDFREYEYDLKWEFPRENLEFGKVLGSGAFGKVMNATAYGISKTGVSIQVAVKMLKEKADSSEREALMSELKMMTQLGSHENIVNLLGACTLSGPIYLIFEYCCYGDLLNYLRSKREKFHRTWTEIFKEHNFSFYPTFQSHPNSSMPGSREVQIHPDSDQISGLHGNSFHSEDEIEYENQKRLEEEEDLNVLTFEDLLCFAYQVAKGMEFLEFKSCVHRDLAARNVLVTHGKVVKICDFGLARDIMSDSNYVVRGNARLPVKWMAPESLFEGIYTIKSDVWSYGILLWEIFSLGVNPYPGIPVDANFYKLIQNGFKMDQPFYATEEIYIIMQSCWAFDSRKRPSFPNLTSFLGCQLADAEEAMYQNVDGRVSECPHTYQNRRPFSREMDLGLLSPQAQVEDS
Protocol: Specific cellular inhibition of FLT ligand-induced wild-type FLT3 phosphorylation was measured in the following manner: Baf3 FLT3 cells overexpressing the FLT3 receptor were obtained from Dr. Michael Heinrich (Oregon Health and Sciences University).

| IC50 (MV4-11 cells) [µM] | IC50 [1] [nM] | IC50 [2] [nM] | Compound |
| --- | --- | --- | --- |
| 0.024 | 14 | 2 | CO/N=C/c1c(N)ncnc1N1CCN(C(=O)Cc2ccc(C(C)C)cc2)CC1 [Compound 7, 4-Amino-6-{4-[2-(4-isopropyl-phenyl)-acetyl]-piperazin-1-yl}-pyrimidine-5-carbaldehyde O-methyl-oxime] |
| 0.013 | 8 | 116 | CCO/N=C/c1c(N)ncnc1N1CCN(C(=O)Cc2ccc(C(C)C)cc2)CC1 [Compound 13, 4-Amino-6-{4-[2-(4-isopropyl-phenyl)-acetyl]-piperazin-1-yl}-pyrimidine-5-carbaldehyde O-ethyl-oxime (anti-configuration for —C═N—O—)] |
| 0.029 | 24 | 158 | CCO/N=C\c1c(N)ncnc1N1CCN(C(=O)Cc2ccc(C(C)C)cc2)CC1 [Compound 14, 4-Amino-6-{4-[2-(4-isopropyl-phenyl)-acetyl]-piperazin-1-yl}-pyrimidine-5-carbaldehyde O-ethyl-oxime (syn-configuration for —C═N—O—)] |
| 0.35 | 126 | 735 | CCO/N=C/c1c(N)ncnc1N1CCN(C(=O)Nc2ccc(N3CCOCC3)cc2)CC1 [Compound 15, 4-[6-Amino-5-(ethoxyimino-methyl)-pyrimidin-4-yl]-piperazine-1-carboxylic acid (4-morpholin-4-yl-phenyl)-amide] |
| 0.66 | 122 | 16 | CO/N=C/c1c(N)ncnc1N1CCCN(C(=O)Nc2ccc(OC(C)C)cc2)CC1 [Compound 24, 4-[6-Amino-5-(methoxyimino-methyl)-pyrimidin-4-yl]-[1,4]diazepane-1-carboxylic acid (4-isopropoxy-phenyl)-amide] |
| 2 | 1150 |  | CC(C)Oc1ccc(NC(=O)N2CCN(c3ncnc(N)c3/C=N/OCCN)CC2)cc1 [Compound 25, 4-{6-Amino-5-[(2-amino-ethoxyimino)-methyl]-pyrimidin-4-yl}-piperazine-1-carboxylic acid (4-isopropoxy-phenyl)-amide] |
| > 1 |  |  | CCNC(=O)NCCO/N=C/c1c(N)ncnc1N1CCN(C(=O)Nc2ccc(OC(C)C)cc2)CC1 [Compound 26, 4-(6-Amino-5-{[2-(3-ethyl-ureido)-ethoxyimino]-methyl}-pyrimidin-4-yl)-piperazine-1-carboxylic acid (4-isopropoxy-phenyl)-amide] |
| 3 | > 10000 |  | Nc1ncnc(N2CCN(C(=O)Nc3ccc(N4CCOCC4)cc3)CC2)c1/C=N/OCCN1CCOCC1 [Compound 29, 4-{6-Amino-5-[(2-morpholin-4-yl-ethoxyimino)-methyl]-pyrimidin-4-yl}-piperazine-1-carboxylic acid (4-morpholin-4-yl-phenyl)-amide] |
| 0.79 | 5150 | 77 | NCCO/N=C/c1c(N)ncnc1N1CCN(C(=O)Nc2ccc(N3CCOCC3)cc2)CC1 [Compound 32, 4-{6-Amino-5-[(2-amino-ethoxyimino)-methyl]-pyrimidin-4-yl}-piperazine-1-carboxylic acid (4-morpholin-4-yl-phenyl)-amide] |
| 2.5 | 1510 |  | NCCO/N=C/c1c(N)ncnc1N1CCN(C(=O)Nc2ccc(N3CCCC3)cc2)CC1 [Compound 34, 4-{6-Amino-5-[(2-amino-ethoxyimino)-methyl]-pyrimidin-4-yl}-piperazine-1-carboxylic acid (4-pyrrolidin-1-yl-phenyl)-amide] |

| Compound | IC50 (MV4-11 cells) [µM] | IC50 [1] [nM] | IC50 [2] [nM] |
| --- | --- | --- | --- |
| Nc1ncnc(N2CCN(C(=O)Nc3ccc(OC4CCC4)nc3)CC2)c1/C=N/OCCN1CCOCC1 [Compound 30, 4-{6-Amino-5-[(2-morpholin-4-yl-ethoxyimino)-methyl]-pyrimidin-4-yl}-piperazine-1-carboxylic acid (6-cyclobutoxy-pyridin-3-yl)-amide] | 2.5 | 1740 |  |
| NCCO/N=C/c1c(N)ncnc1N1CCN(C(=O)Nc2ccc(OC3CCC3)nc2)CC1 [Compound 31, 4-{6-Amino-5-[(2-amino-ethoxyimino)-methyl]-pyrimidin-4-yl}-piperazine-1-carboxylic acid (6-cyclobutoxy-pyridin-3-yl)-amide] | 1.3 | 1450 | 206 |
| CS(=O)(=O)NCCO/N=C/c1c(N)ncnc1N1CCN(C(=O)Nc2ccc(OC3CCC3)nc2)CC1 [Compound 33, 4-{6-Amino-5-[(2-methanesulfonylamino-ethoxyimino)-methyl]-pyrimidin-4-yl}-piperazine-1-carboxylic acid (6-cyclobutoxy-pyridin-3-yl)-amide] | 2.8 | 1150 |  |
